Results taken from patent US10654837B2, “Sulphamoylaryl derivatives and use thereof as medicaments for the treatment of liver fibrosis” (Janssen Pharmaceutica NV, priority 2017, dated 2020).

target: T1, 5HTR2B (Homo sapiens, UniProt P41595); test: 5HTR2B antagonist activity, calcium mobilization assay in human Maverick/293 cells (serotonin as agonist); assay type: cell-based; details: intracellular calcium, emission 525 nm, read-out: Ca assay IC50
T1 construct: host or cells: human Maverick/293 cells
T1 sequence (P41595 whole entry): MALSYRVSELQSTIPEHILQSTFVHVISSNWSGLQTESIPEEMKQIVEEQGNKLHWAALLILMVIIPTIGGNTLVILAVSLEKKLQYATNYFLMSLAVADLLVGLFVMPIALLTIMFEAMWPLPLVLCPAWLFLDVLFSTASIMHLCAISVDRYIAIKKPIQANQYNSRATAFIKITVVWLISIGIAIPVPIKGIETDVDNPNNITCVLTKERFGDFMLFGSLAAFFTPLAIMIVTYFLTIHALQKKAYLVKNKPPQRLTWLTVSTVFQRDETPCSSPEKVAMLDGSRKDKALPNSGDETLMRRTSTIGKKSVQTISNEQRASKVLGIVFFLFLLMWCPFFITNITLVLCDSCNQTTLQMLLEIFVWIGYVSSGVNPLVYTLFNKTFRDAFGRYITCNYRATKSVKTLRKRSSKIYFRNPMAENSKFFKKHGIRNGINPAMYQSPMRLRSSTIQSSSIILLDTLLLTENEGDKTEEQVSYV
Experimental: The 5HTR2B antagonist activity was measured using human Maverick/293 cells in a calcium mobilization assay. The measurement starting with plating human Maverick/293 cells (log phase) onto 96-well black and incubate at 37° C. overnight, Followed by starving cells for 2 h by changing complete medium to DMEM without FBS, removing the medium from the 96-well plate. Loading staining calcium buffer into each well and incubated the plate at 37° C. for 50 min. After removal of staining calcium buffer, diluted antagonist were added into the well, incubate 15 to 30 minutes. Dispense serotonin as the 5HTR2B agonists into each well. Intracellular calcium concentration is recorded for 80 seconds by monitoring an emission at a wavelength of 525 nm with an excitation wavelength of 485 nm. Inhibition efficiency of the cell line was determined following the equation: % Inhibition=100%−(D−B)/(S−B)*100%. (S: The peak value in the presence of agonist serotonin; D: The peak value in the presence of different dilution compound or serotonin; B: The peak value in the presence of calcium HBSS buffer only). […] A dose response curve was fitted using nonlinear regression model with a sigmoidal dose response. The IC50 was automatically produced by GraphPad Prism 5.0.

| SMILES | IC50 |
| --- | --- |
| COc1ccc(S(=O)(=O)NC2CC2)cc1C(=O)Nc1ccc(F)c(C)n1 [Compound 21, 5-(N-Cyclopropylsulfamoyl)-N-(5-fluoro-6-methylpyridin-2-yl)-2-methoxy benzamide] | 1.6 nM |
| COc1ccc(S(=O)(=O)NC2CCCC[C@H]2O)cc1C(=O)Nc1ccc(F)c(C)n1 (stereo in doubt) [Compound 28b, N-(5-Fluoro-6-methylpyridin-2-yl)-5-(N-((trans)-2-hydroxycyclohexyl)sulfamoyl)-2-methoxybenzamide] | 119 nM |
| CNS(=O)(=O)c1ccc(OC)c(C(=O)Nc2ccc(F)c(C)n2)c1 [Compound 24] | 47 nM |
| CCOc1ccccc1NC(=O)c1cc(S(=O)(=O)N[C@H]2CCOC2)ccc1OC [Compound 136, (S)—N-(2-ethoxyphenyl)-2-methoxy-5-(N-(tetrahydrofuran-3-yl)sulfamoyl) benzamide] | 0.4 nM |
| COc1ccc(S(=O)(=O)N[C@H]2CCOC2)cc1C(=O)Nc1cc(C)c(F)cn1 [Compound 161, (S)—N-(5-Fluoro-4-methylpyridin-2-yl)-2-methoxy-5-(N-(tetrahydrofuran-3-yl)sulfamoyl)benzamide] | 79 nM |
| COc1ccc(S(=O)(=O)N[C@H]2CCOC2)cc1C(=O)Nc1ccccc1C [Compound 163, (S)-2-Methoxy-5-(N-(tetrahydrofuran-3-yl)sulfamoyl)-N-(o-tolyl)benzamide] | 0.9 nM |
| COc1ccc(S(=O)(=O)NC(C)C(F)(F)F)cc1C(=O)Nc1ccc(F)c(C)n1 (single isomer, unassigned) [Compound 29a, (S*)—N-(5-Fluoro-6-methylpyridin-2-yl)-2-methoxy-5-(N-(1,1,1-trifluoropropan-2-yl)sulfamoyl)benzamide] | 3 nM |
| COc1ccc(S(=O)(=O)NC(C)CC#N)cc1C(=O)Nc1ccc(F)c(C)c1 (single isomer, unassigned) [Compound 11a, (S*)-5-(N-(1-Cyanopropan-2-yl)sulfamoyl)-N-(4-fluoro-3-methylphenyl)-2-methoxybenzamide] | 68 nM |
| COc1ccc(S(=O)(=O)N[C@H]2CCOC2)cc1C(=O)Nc1ccccc1C#N [Compound 164] | 1.1 nM |
| COc1ccc(S(=O)(=O)NC2(C)COC2)cc1C(=O)Nc1ccc(F)c(C(F)F)c1 [Compound 36, N-(3-(Difluoromethyl)-4-fluorophenyl)-2-methoxy-5-(N-(3-methyloxetan-3-yl)sulfamoyl)benzamide] | 2.7 nM |
| COc1ccc(S(=O)(=O)N[C@H]2CCOC2)cc1C(=O)Nc1cccc(Br)c1 [Compound 124, (S)—N-(3-Bromophenyl)-2-methoxy-5-(N-(tetrahydrofuran-3-yl)sulfamoyl) benzamide] | 6.3 nM |
| COc1ccc(S(=O)(=O)N[C@@H]2CCNC2)cc1C(=O)Nc1ccc(F)cc1 [Compound 180, (R)—N-(4-Fluorophenyl)-2-methoxy-5-(N-(pyrrolidin-3-yl)sulfamoyl)benzamide] | 3.3 nM |
| COc1ccccc1NC(=O)c1cc(S(=O)(=O)N[C@H]2CCNC2)ccc1OC [Compound 184, (S)-2-methoxy-N-(2-methoxyphenyl)-5-(N-(pyrrolidin-3-yl)sulfamoyl) benzamide] | 0.3 nM |
| COc1ccc(S(=O)(=O)N[C@H]2CCOC2)cc1C(=O)Nc1ccccc1C(F)(F)F [Compound 149, (S)-2-Methoxy-5-(N-(tetrahydrofuran-3-yl)sulfamoyl)-N-(2-(trifluoromethyl)phenyl)benzamide] | 8.4 nM |
| COc1ccc(S(=O)(=O)N[C@H]2CCOC2)cc1C(=O)Nc1ccc(F)c(Cl)c1F [Compound 77, (S)—N-(3-Chloro-2,4-difluorophenyl)-2-methoxy-5-(N-(tetrahydrofuran-3-yl)sulfamoyl)benzamide] | 5.3 nM |
| COc1ccc(S(=O)(=O)NC(C)C(F)(F)F)cc1C(=O)Nc1ccc(F)c(C)n1 (single isomer, unassigned) [Compound 29b, (R*)—N-(5-Fluoro-6-methylpyridin-2-yl)-2-methoxy-5-(N-(1,1,1-trifluoropropan-2-yl)sulfamoyl)benzamide] | 4.6 nM |
| CCOc1ccc(S(=O)(=O)N[C@H]2CCOC2)cc1C(=O)Nc1ccc(F)c(C)n1 [Compound 198, (S)-2-ethoxy-N-(5-fluoro-6-methylpyridin-2-yl)-5-(N-(tetrahydrofuran-3-yl)sulfamoyl)benzamide] | 0.7 nM |
| COc1ccc(S(=O)(=O)N[C@H]2CCOC2)cc1C(=O)Nc1nc(C)cs1 [Compound 82, (S)-2-methoxy-N-(4-methylthiazol-2-yl)-5-(N-(tetrahydrofuran-3-yl)sulfamoyl) benzamide] | 1.1 nM |
| COc1ccc(S(=O)(=O)N[C@H]2CCOC2)cc1C(=O)Nc1cc(F)c(C#N)cc1F [Compound 98, (S)—N-(4-Cyano-2,5-difluorophenyl)-2-methoxy-5-(N-(tetrahydrofuran-3-yl)sulfamoyl)benzamide] | 37 nM |
| COc1ccc(S(=O)(=O)NC2(C)COC2)cc1C(=O)Nc1ccc(F)cc1 [Compound 42, N-(4-Fluorophenyl)-2-methoxy-5-(N-(3-methyloxetan-3-yl)sulfamoyl)benzamide] | 2.2 nM |
| COc1ccc(S(=O)(=O)N[C@H]2CCOC2)cc1NC(=O)c1ccc(F)c(C)c1 [Compound 203, (S)-4-Fluoro-N-(2-methoxy-5-(N-(tetrahydrofuran-3-yl)sulfamoyl)phenyl)-3-methylbenzamide] | 13 nM |
| COc1ccc(S(=O)(=O)N[C@H]2CCOC2)cc1C(=O)Nc1cc(Cl)ccc1Cl [Compound 71, (S)—N-(2,5-Dichlorophenyl)-2-methoxy-5-(N-(tetrahydrofuran-3-yl)sulfamoyl)benzamide] | 1.6 nM |
| COc1ccc(S(=O)(=O)N[C@H]2CCOC2)cc1C(=O)Nc1ccn(C)n1 [Compound 79, (S)-2-Methoxy-N-(1-methyl-1H-pyrazol-3-yl)-5-(N-(tetrahydrofuran-3-yl)sulfamoyl)benzamide] | 98 nM |
| COc1ccc(S(=O)(=O)N[C@H]2CCOC2)cc1C(=O)Nc1cc(Cl)cc(C#N)c1 [Compound 94, (S)—N-(3-Chloro-5-cyanophenyl)-2-methoxy-5-(N-(tetrahydrofuran-3-yl)sulfamoyl)benzamide] | 12 nM |
| CCNS(=O)(=O)c1ccc(OC)c(C(=O)Nc2ccc(F)c(C)n2)c1 [Compound 26, 5-(N-Ethylsulfamoyl)-N-(5-fluoro-6-methylpyridin-2-yl)-2-methoxybenzamide] | 1.3 nM |
| COc1ccc(S(=O)(=O)N[C@H]2CCOC2)cc1C(=O)Nc1cc(Cl)c(F)cc1F [Compound 75, (S)—N-(5-Chloro-2,4-difluorophenyl)-2-methoxy-5-(N-(tetrahydrofuran-3-yl)sulfamoyl)benzamide] | 9.1 nM |
| COc1ccc(S(=O)(=O)N[C@H]2C[C@H](O)C2)cc1C(=O)Nc1ccccc1Cl [Compound 154] | 0.6 nM |

Now from value to molecule:

| IC50 | SMILES |
| --- | --- |
| 1 nM | COc1ccc(NS(=O)(=O)[C@H]2CCOC2)cc1C(=O)Nc1ccc(F)c(C)c1 (single isomer, unassigned) [Compound 202a, (S*)N-4-fluoro-3-methylphenyl)-2-methoxy-5-(tetrahydrofuran-3-sulfonamido)benzamide] |
| 0.2 nM | COc1ccc(S(=O)(=O)N[C@@H](C)C(N)=O)cc1C(=O)Nc1ccccc1Cl [Compound 59a] |
| 9 nM | COc1ccc(S(=O)(=O)N[C@H](C)CO)cc1C(=O)Nc1ccc(F)cc1 [Compound 49b, (R)—N-(4-Fluorophenyl)-5-(N-(1-hydroxypropan-2-yl)sulfamoyl)-2-methoxybenzamide] |
| 0.4 nM | COc1ccc(S(=O)(=O)N[C@@H](C)CC#N)cc1C(=O)Nc1ccccc1Cl (single isomer, unassigned) [Compound 60a, (S*)—N-(2-Chlorophenyl)-5-(N-(1-cyanopropan-2-yl)sulfamoyl)-2-methoxy benzamide] |
| 0.2 nM | COc1ccc(S(=O)(=O)NC2CCC[C@H]2O)cc1C(=O)Nc1ccccc1Cl (stereo partly drawn) [Compound 61c, N-(2-chlorophenyl)-5-(N-((trans)-2-hydroxycyclopentyl)sulfamoyl)-2-methoxy benzamide] |
| 329 nM | COc1ccc(S(=O)(=O)N[C@H]2C[C@@H](O)C2)cc1C(=O)Nc1c(C)cccc1Cl [Compound 138b, N-(2-Chloro-6-methylphenyl)-5-(N-((cis)-3-hydroxycyclobutyl)sulfamoyl)-2-methoxybenzamide] |
| 1.7 nM | COC[C@H](C)NS(=O)(=O)c1ccc(OC)c(C(=O)Nc2ccc(F)cc2)c1 (single isomer, unassigned) [Compound 40a, (S*)—N-(4-Fluorophenyl)-2-methoxy-5-(N-(1-methoxypropan-2-yl)sulfamoyl) benzamide] |
| 50 nM | COc1ccc(N(C)S(=O)(=O)C2CCOC2)cc1C(=O)Nc1ccc(F)c(C)c1 (single isomer, unassigned) [Compound 204a, (R*)—N-(4-Fluoro-3-methylphenyl)-2-methoxy-5-(N-methyltetrahydrofuran-3-sulfonamido)benzamide] |
| 39 nM | COc1ccc(S(=O)(=O)N[C@H]2C[C@@H](O)C2)cc1C(=O)Nc1cc(C)ccc1Cl [Compound 137b, N-(2-Chloro-5-methylphenyl)-5-(N-((cis)-3-hydroxycyclobutyl)sulfamoyl)-2-methoxybenzamide] |
| 1.7 nM | COc1ccc(S(=O)(=O)N[C@H]2C[C@@H](O)C2)cc1C(=O)Nc1ccc(F)c(C(F)F)n1 [Compound 174b, N-(6-(Difluoromethyl)-5-fluoropyridin-2-yl)-5-(N-((cis)-3-hydroxycyclobutyl)sulfamoyl)-2-methoxybenzamide] |
